Publication PMC3681751, “Identification of a Novel Antimicrobial Peptide from Human Hepatitis B Virus Core Protein Arginine-Rich Domain (ARD)” (PLoS Pathogens, 2013)
≈ marks a conversion by molar mass, not a printed value. Like-named read-outs stand apart in the source and are kept apart here. Positions of bridges follow the written chain, without caps; N, C: chain ends. Non-standard residues stand in square brackets, D forms with d. Residues, ends and D or L forms follow the SMILES beside them. *: point of attachment. X1 = CC[C@H](C)CCCCC(=O)*; Dab = NCC[C@H](N)C(=O)O

Legend:
[1] = tested on: P. aeruginosa NHRI-02; assay type: cell-based, Pseudomonas aeruginosa; conditions: Colistin sensitive strain; colistin susceptibility by broth-dilution (CLSI)
Description: (§1) Clinical isolates of Pseudomonas aeruginosa (NHRI-01, NHRI-02 and NHRI-04) were obtained through the program of Taiwan Surveillance of Antimicrobial Resistance (TSAR), National Health Research Institutes (NHRI), Taiwan. Acinetobacter baumannii (ATCC 17989, ATCC 17978 CR, ATCC19606, ATCC 19606 CR, TCGH 45530 and TCGH 46709) were obtained from Tzu-Chi Buddhist General Hospital (TCGH) in Taiwan, and clinical isolates (TCGH 45530 and TCGH 46709) were identified using the Vitek system (Biomerieux Vitek, Inc., Hazelwood, MO, USA). A. baumannii is defined as multidrug-resistant, when the organism is resistant to piperacillin, piperacillin-tazobactam, ampicillin/sulbactam, imipenem, ceftazidime, gentamicin, amikacin, tetracycline, chloramphenicol, ciprofloxacin, and cotrimoxazole. Susceptibility to colistin was determined using the broth-dilution method, in accordance with the guidelines of the Clinical and Laboratory Standards Institute (CLSI).
(§2) All peptides were purchased from Yao-Hong Biotechnology Inc. (Taipei, Taiwan). Vendors provided data of peptide characterizations, including HPLC and Mass (data not shown). Antimicrobial activity was determined as described with some modifications as detailed below. Bacteria were grown overnight in Mueller–Hinton broth (Difco) at 37°C, and during the mid-logarithmic phase, bacteria were diluted to 10^6 CFU (colony formation unit)/ml in phosphate buffer (10 mM sodium phosphate and 50 mM sodium chloride, pH 7.2). Peptides were serially diluted in the same buffer. Fifty microliter (µl) of bacteria was mixed with fifty µl of peptides at varying concentrations followed by incubation at 37°C for 3 hours without shaking. At the end of incubation, bacteria were placed on Mueller-Hinton broth agar plates, and allowed growth at 37°C overnight for measurement of minimal bactericidal concentration (MBC). […] All peptides were tested in triplicate.

[2] = tested on: P. aeruginosa NHRI-01; assay type: cell-based, Pseudomonas aeruginosa; conditions: Colistin resistant strain; colistin susceptibility by broth-dilution (CLSI)
Description: as §1, §2

[3] = tested on: P. aeruginosa NHRI-04; assay type: cell-based, Pseudomonas aeruginosa; conditions: Colistin sensitive strain; colistin susceptibility by broth-dilution (CLSI)
Description: as §1, §2

[4] = tested on: A. baumannii ATCC17978 CR; assay type: cell-based, Acinetobacter baumannii; conditions: Induced Colistin resistant strain; colistin susceptibility by broth-dilution (CLSI)
Description: as §1, §2

[5] = tested on: A. baumannii TCGH46709; assay type: cell-based, Acinetobacter baumannii; conditions: Clinical isolate, multidrug resistance; colistin susceptibility by broth-dilution (CLSI)
Description: as §1, §2

[6] = tested on: A. baumannii ATCC19606 CR; assay type: cell-based, Acinetobacter baumannii; conditions: Induced Colistin resistant strain; colistin susceptibility by broth-dilution (CLSI)
Description: as §1, §2

[7] = tested on: A. baumannii ATCC19606; assay type: cell-based, Acinetobacter baumannii; conditions: Reference strain; colistin susceptibility by broth-dilution (CLSI)
Description: as §1, §2

[8] = tested on: A. baumannii TCGH45530; assay type: cell-based, Acinetobacter baumannii; conditions: Clinical isolate, multidrug resistance; colistin susceptibility by broth-dilution (CLSI)
Description: as §1, §2

[9] = tested on: A. baumannii ATCC17978; assay type: cell-based, Acinetobacter baumannii; conditions: Reference strain; colistin susceptibility by broth-dilution (CLSI)
Description: as §1, §2

[10] = tested on: K. pneumonia (ATCC 13884); assay type: cell-based, Klebsiella pneumoniae
[11] = tested on: E. coli (ATCC 25922); assay type: cell-based, Escherichia coli; conditions: 3 h at 37°C in phosphate buffer pH 7.2; triplicate
Description: (§3) The antimicrobial activities of HBc ARD peptides were tested using a number of bacterial strains from ATCC, including Pseudomonas aeruginosa Migula strain (ATCC 27853, ampicillin-resistant), Pseudomonas aeruginosa Migula strain (ATCC 9027, ampicillin-resistant), Klebsiella pneumoniae strain (ATCC 17593), Escherichia coli strain (ATCC 25922), Staphylococcus aureus subsp. strain (ATCC 25923, methicillin-resistant), Staphylococcus aureus subsp. strain (ATCC 29213, methicillin-resistant), Staphylococcus aureus subsp. strain (ATCC 19636, methicillinresistant), and Candida albicans strain (ATCC 10231).
as §2

[12] = tested on: P. aeruginosa; experiment: SYTOX Green uptake (membrane permeabilization); assay type: cell-based, Pseudomonas aeruginosa; conditions: 0.5, 1 and 2 µM, dose-dependent; triplicates
Description: Briefly, bacteria (10^7 CFU) were prepared and mixed with 1 µM SYTOX Green (Invitrogen) for 15 minutes in the dark. […] Melittin (Sigma), the major toxin of bee venom, was used as a positive control to provide maximal permeabilization.

[13] = tested on: P. aeruginosa (ATCC 9027); assay type: cell-based, Pseudomonas aeruginosa
Description: as §3, §2

[14] = tested on: P. aeruginosa (ATCC 27853); assay type: cell-based, Pseudomonas aeruginosa
Description: as §3, §2

[15] = ampicillin-resistant strain, 3 h at 37°C in phosphate buffer pH 7.2, triplicate

Compound	MBC [1]	MBC [2]	MBC [3]	MBC [4]	MBC [5]	MBC [6]	MBC [7]	MBC [8]	MBC [9]	Antimicrobial activity, MBC ([10]; 3 h at 37°C in phosphate buffer pH 7.2, triplicate)	Antimicrobial activity, MBC ([10]; ATCC 13884, 3 h, pH 7.2)	Antimicrobial activity, MBC [11]	Time to membrane permeabilization (SYTOX Green uptake) [12]	Antimicrobial activity, MBC ([13]; ATCC 9027, 3 h, pH 7.2)	Antimicrobial activity, MBC [13, 15]	MBC against P. aeruginosa ([13]; summary over the P. aeruginosa strains of Table 1 (ATCC 9027, ATCC 27853))	Antimicrobial activity, MBC ([14]; ATCC 27853, 3 h, pH 7.2)	Antimicrobial activity, MBC [14, 15]
CC[C@H](C)CCCCC(=O)N[C@@H](CCN)C(=O)N[C@H](C(=O)N[C@@H](CCN)C(=O)N[C@H]1CCNC(=O)[C@H]([C@@H](C)O)NC(=O)[C@H](CCN)NC(=O)[C@H](CCN)NC(=O)[C@H](CC(C)C)NC(=O)[C@@H](CC(C)C)NC(=O)[C@H](CCN)NC1=O)[C@@H](C)O [Colistin] (X1-[Dab]T[Dab][Dab][Dab][dL]L[Dab][Dab]T; lactam 4-C (inferred); N-terminus assumed)	4 µg/mL (≈ 3.42 µM)	>8 µg/mL	4 µg/mL (≈ 3.42 µM)	>8 µg/mL	>8 µg/mL	8 µg/mL (≈ 6.84 µM)	2 µg/mL (≈ 1.71 µM)	>8 µg/mL	4 µg/mL (≈ 3.42 µM)									
C[C@@H](O)[C@H](NC(=O)[C@H](CCCNC(=N)N)NC(=O)[C@H](CCCNC(=N)N)NC(=O)[C@H](CCCNC(=N)N)NC(=O)[C@@H]1CCCN1C(=O)[C@H](CO)NC(=O)[C@H](CCCNC(=N)N)NC(=O)CN)C(=O)N1CCC[C@H]1C(=O)N[C@@H](CO)C(=O)N1CCC[C@H]1C(=O)N[C@@H](CCCNC(=N)N)C(=O)N[C@@H](CCCNC(=N)N)C(=O)N[C@@H](CCCNC(=N)N)C(=O)N[C@@H](CCCNC(=N)N)C(=O)N[C@@H](CO)C(=O)N[C@@H](CCC(N)=O)C(=O)N[C@@H](CO)C(=O)N1CCC[C@H]1C(=O)N[C@@H](CCCNC(=N)N)C(=O)N[C@@H](CCCNC(=N)N)C(=O)N[C@@H](CCCNC(=N)N)C(=O)N[C@@H](CCCNC(=N)N)C(=O)N[C@@H](CO)C(=O)O [HBc153-176] (H-GRSPRRRTPSPRRRRSQSPRRRRS-OH; N-terminus and C-terminus assumed)										> 96 µg/mL	> 32 µM	48 µg/mL	≤ 10 min	1 to 2 µM	3 to 6 µg/mL	strong activity	1 to 2 µM	3 to 6 µg/mL
CC[C@H](C)CCCCC(=O)N[C@@H](CCN)C(=O)N[C@H](C(=O)N[C@@H](CCN)C(=O)N[C@H]1CCNC(=O)[C@H]([C@@H](C)O)NC(=O)[C@H](CCN)NC(=O)[C@H](CCN)NC(=O)[C@H](CC(C)C)NC(=O)[C@@H](Cc2ccccc2)NC(=O)[C@H](CCN)NC1=O)[C@@H](C)O [Polymyxin B] (X1-[Dab]T[Dab][Dab][Dab][dF]L[Dab][Dab]T; lactam 4-C (inferred); N-terminus assumed)	2 µg/mL (≈ 1.66 µM)	4 µg/mL (≈ 3.32 µM)	2 µg/mL (≈ 1.66 µM)	8 µg/mL (≈ 6.65 µM)	>8 µg/mL	>8 µg/mL	2 µg/mL (≈ 1.66 µM)	8 µg/mL (≈ 6.65 µM)	4 µg/mL (≈ 3.32 µM)									
